Laboratory results taken from PMC12469269, “Investigating SMR Peptide Interactions with Breast Cancer-Associated Proteins” (International Journal of Molecular Sciences, 2025).
“Also recorded” adds a separate entry of the source.

Key:
[1] = test system: Vimentin; assay: SPR competition: SMRwt binding to immobilized Vimentin with Mortalin peptides; parameters: species or system Human; conditions: 20 µM SMRwt + 20 µM Mortalin peptide, 25 °C, HBS-P pH 7.4
Description: (§1) Both Vimentin and Mortalin were immobilized as ligands. We used 20 µM of SMRwt alone and 20 µM of Mortalin peptides alone, and their mixtures were used as analytes.
(§2) Figure 9 Competitive binding of SMR and Mortalin peptides to Vimentin and Mortalin proteins. Binding of SMRwt to immobilized Vimentin in the presence and absence of (A) Mortalin peptide #56, (B) Mortalin peptide #61, and (C) Mortalin peptide #62. Binding of SMRwt to immobilized Mortalin in the presence and absence of (D) Mortalin peptide #56, (E) Mortalin peptide #61, and (F) Mortalin peptide #62. SMRwt alone, as well as a mixture of His-tagged Mortalin peptides #56, #61, and #62 were injected as analytes to flow over the immobilized ligand surfaces. […] Vimentin and Mortalin proteins were immobilized as ligands on a CM5 sensor chip using standard amine coupling chemistry.
(§3) SPR experiments were conducted using a Biacore T200 instrument (Cytiva, Marlborough, MA, USA). CM5 sensor chips (Cytiva) were used to immobilize proteins and run subsequent binding assays at 25 °C. To investigate the direct binding of Nef and SMR peptides to Vimentin and Mortalin and SMR competition studies, both proteins were immobilized as ligands on the active flow cells (FCs) using standard amine coupling chemistry. […] Sensorgrams recorded for kinetics analyses were fitted to a 1:1 binding model using the Biacore T200 evaluation software version 3.2.1. […]

[2] = test system: Mortalin; assay: SPR competition: SMRwt binding to immobilized Mortalin with Mortalin peptides; parameters: species or system Human; conditions: 20 µM SMRwt + 20 µM Mortalin peptide, 25 °C, HBS-P pH 7.4
Description: as §1, §2, §3

[3] = biological target: T1, Recombinant Human GRP75/HSPA9B/Mortalin His Protein (Homo sapiens, UniProt P38646); assay: biochemical; format: binding; conditions: SPR, 25 °C, HBS-P pH 7.4
T1 construct: His; purchased Novus Biologicals, LLC/R&D Systems NBC1-18380
T1 sequence (P38646 47-679): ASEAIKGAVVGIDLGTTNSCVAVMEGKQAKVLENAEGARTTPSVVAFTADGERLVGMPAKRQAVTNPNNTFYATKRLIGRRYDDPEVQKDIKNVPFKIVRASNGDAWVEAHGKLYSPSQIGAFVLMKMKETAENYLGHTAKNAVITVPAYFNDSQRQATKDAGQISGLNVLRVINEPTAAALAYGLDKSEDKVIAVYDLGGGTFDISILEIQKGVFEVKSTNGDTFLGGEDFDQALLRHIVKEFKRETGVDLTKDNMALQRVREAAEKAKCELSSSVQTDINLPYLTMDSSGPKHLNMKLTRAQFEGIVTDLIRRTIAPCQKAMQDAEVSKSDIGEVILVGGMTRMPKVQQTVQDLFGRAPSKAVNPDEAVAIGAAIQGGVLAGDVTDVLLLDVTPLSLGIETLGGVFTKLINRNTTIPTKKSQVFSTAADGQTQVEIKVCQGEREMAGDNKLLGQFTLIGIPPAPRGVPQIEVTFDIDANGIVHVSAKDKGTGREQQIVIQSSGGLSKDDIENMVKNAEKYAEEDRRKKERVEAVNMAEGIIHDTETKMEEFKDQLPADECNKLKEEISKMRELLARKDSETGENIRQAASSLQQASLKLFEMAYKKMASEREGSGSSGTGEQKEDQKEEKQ
Source text: (§4) We conducted SPR experiments to characterize and quantify the direct binding interactions between Nef and SMR peptides (the analytes) and the target proteins, Vimentin and Mortalin (the immobilized ligands). We did so by injecting the analytes at various concentrations over the chip surface with the immobilized ligands.
(§5) Recombinant Human Vimentin Protein, CF (catalog # 2105-VI-100), Recombinant Human GRP75/HSPA9B/Mortalin His Protein (catalog # NBC1-18380), and Recombinant Human HSPA8/HSC71/Hsc70 His Protein (Catalog # NBPI-30278) were purchased from Novus Biologicals, LLC/R&D Systems, Centennial, CO, USA. These proteins were used for SPR.
(§6) SPR experiments were conducted using a Biacore T200 instrument (Cytiva, Marlborough, MA, USA). CM5 sensor chips (Cytiva) were used to immobilize proteins and run subsequent binding assays at 25 °C. To investigate the direct binding of Nef and SMR peptides to Vimentin and Mortalin and SMR competition studies, both proteins were immobilized as ligands on the active flow cells (FCs) using standard amine coupling chemistry. One reference FC was prepared using the same surface chemistry, and no proteins were immobilized onto this reference FC. Vimentin was immobilized to a level of ~2500 RU to 7200 RU in the presence of 4 mM of HCl and Mortalin to a level of ~11,900 RU to 13,200 RU in the presence of 10 mM of sodium acetate buffer at pH 4.5. Analytes were then injected (Nef, SMR peptides, Mortalin peptides, and mixtures of […]). One 20 s pulse of 1:500 H3PO4 (H3PO4:ddH2O) was injected for surface regeneration. To investigate the direct binding of Mortalin peptides to Nef, Nef was immobilized as a ligand to ~450 RU using thiol coupling chemistry. A reference FC was created using a method similar to the one above. Mortalin peptides were then injected as analytes. One 20 s pulse of 1 M NaCl was injected for surface regeneration. HBS-P (10 mM Hepes, pH 7.4; 150 mM NaCl; 0.05% surfactant P20) was used as the immobilization running buffer during the immobilization of all ligands. HBS-P was also used to dilute analytes and as a running buffer during all analyte–ligand binding assays. SPR data used for analysis was both blank (signals due to HBS-P only) and reference-subtracted (signals corresponding to reference FCs). Sensorgrams recorded for kinetics analyses were fitted to a 1:1 binding model using the Biacore T200 evaluation software version 3.2.1. GraphPad Prism version 10.4.0 was used to plot all graphs.

[4] = biological target: T2, Recombinant Human Vimentin Protein (Homo sapiens, UniProt P08670); assay: biochemical; format: binding; conditions: SPR, 25 °C, HBS-P pH 7.4
T2 construct: purchased Novus Biologicals, LLC/R&D Systems 2105-VI-100
T2 sequence (P08670 whole entry): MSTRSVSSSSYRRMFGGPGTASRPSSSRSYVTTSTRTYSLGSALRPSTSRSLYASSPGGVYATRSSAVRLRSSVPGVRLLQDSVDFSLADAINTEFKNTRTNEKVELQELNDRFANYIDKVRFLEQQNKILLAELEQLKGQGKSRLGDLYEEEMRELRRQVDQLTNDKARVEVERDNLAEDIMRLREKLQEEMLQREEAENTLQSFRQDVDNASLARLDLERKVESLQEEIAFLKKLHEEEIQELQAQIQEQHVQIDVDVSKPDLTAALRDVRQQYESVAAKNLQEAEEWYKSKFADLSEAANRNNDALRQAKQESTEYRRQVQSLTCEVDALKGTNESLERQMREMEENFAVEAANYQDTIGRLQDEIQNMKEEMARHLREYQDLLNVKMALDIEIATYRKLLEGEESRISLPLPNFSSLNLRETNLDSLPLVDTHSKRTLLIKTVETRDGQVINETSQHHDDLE
Source text: as §4, §5, §6

[5] = test system: Mortalin (Grp-75); assay: Co-immunoprecipitation / Western blot, Mortalin; format: binding, human; conditions: MDA-MB-231, MCF-7, BT474 lysates; anti-FLAG M2 resin, 4 °C overnight
Description: MDA-MB-231, MCF-7, and BT474 BC cells were grown in RPMI 1640 medium containing 10% FBS at 37 °C in a T-75 tissue culture flask and collected via centrifugation at 1000× g for 20 min at 4 °C. The cell pellet was resuspended in 1 mL of 1X PBS and transferred to a 1.5 mL Eppendorf tube. Following microcentrifugation at 1000× g for 1 min, the pellet was resuspended in 1 mL of α-FLAG Lysis buffer through gentle pipetting (50 mM Tris HCl, pH 7.4; 150 mM sodium chloride [NaCl]; 1 mM EDTA; and 1% Triton X-100, with 1 mM phenylmethyl sulfonyl fluoride [PMSF] and 10 µL/mL Protease Inhibitor Cocktail with mammalian cell and tissue extracts [PIC; Sigma-Aldrich] added immediately before use). The suspension was differentially microcentrifuged at 2000× g for 5 min and at 13,000× g for 10 min to pellet the cell debris and DNA, respectively, and the supernatant (hereafter referred to as the Lysate) was collected. In total, 1 milligram of Lysate protein and 1 milligram of the SMRwt or SMRmut peptide were added to 20 µL of Anti-FLAG® M2 Affinity Gel (resin; Sigma). […]
Cell proteins were analyzed using Western blot analysis, as described previously. […] Protein bands were detected using Western blotting Luminol Reagent (Santa Cruz Biotechnology, Inc., Santa Cruz, CA, USA). […]

Substance: DQLPADECNKLKEEISKMRE [#61, Mortalin scanning peptide 61]
- inhibition of SMRwt–Vimentin binding, in words ([1]; listed as Mortalin #61): effectively compete with SMRwt to block its interaction with the Mortalin or Vimentin protein
- inhibition of SMRwt–Vimentin binding, in words ([1]; listed as Mortalin peptide #61): inhibited SMRwt binding to both Mortalin and Vimentin; also recorded: completely blocks the 20 µM SMRwt from binding to both Vimentin and Mortalin; also recorded: completely inhibited complex formation between SMRwt and Vimentin
- inhibition of SMRwt–Mortalin binding, in words ([2]; listed as Mortalin #61): effectively compete with SMRwt to block its interaction with the Mortalin or Vimentin protein
- inhibition of SMRwt–Mortalin binding, in words ([2]; listed as Mortalin peptide #61): inhibited SMRwt binding to both Mortalin and Vimentin; also recorded: completely blocks the 20 µM SMRwt from binding to both Vimentin and Mortalin; also recorded: complete inhibition

Substance: ^66Ala-Gly-Phe-Pro-Val^70 [SMRmut, 5-mer negative control, Val66 changed to Ala]
- binding to Mortalin, in words [3]: did not produce a meaningful positive binding response to Vimentin and Mortalin; also recorded: does not bind to the Mortalin protein
- binding response to Vimentin, in words [4]: did not produce a meaningful positive binding response to Vimentin and Mortalin
- co-immunoprecipitation with Mortalin, in words [5]: not SMRmut, co-immunoprecipitated with Mortalin
